Assay results as given in patent US20140193827A1 (TEVA PHARMACEUTICAL INDUSTRIES, LTD., priority 2013, published 2014).

Tested on: GA-primed murine splenocytes
Assay: ANOVA-based pattern identification method
Format: cell-based, mouse
Text: We sought to identify probes matching specific patterns of expression across experimental conditions using a technique that referred to as the ANOVA-based Pattern Identification Method.
To carry out the analysis in a general manner, we computed the 6 p-values required to do pairwise comparisons of all 4 conditions for all probes using the ANOVA1 function in MATLAB. We then identified sets of probes matching the desired pattern. In the example above, probes were identified as being only affected by PG if their 6 pairwise comparison pvalues matched the following pattern (pGA-PG<0.05, pPG-reference standard<0.05, pPG-Medium<0.05, pGAMedium>0.05, pGA-reference standard>0.05, preference standard-Medium>0.05).

[1] = DOWN IN GA AND REF ONLY, first line for this gene
[2] = DOWN IN GA AND REF ONLY, second line for this gene

glatiramer acetate [GA]
average expression of LOC382163 (DOWN IN GA AND REF ONLY): 6.742 | average expression of LOC383099 (DOWN IN GA AND REF ONLY): 13.14 | average expression of LOC386085 (DOWN IN GA AND REF ONLY): 6.21 | average expression of LOC386117 (DOWN IN GA AND REF ONLY): 7.052 | average expression of LOC636818 (DOWN IN GA AND REF ONLY): 5.986 | average expression of LOC100046003 (DOWN IN GA AND REF ONLY): 8.735 | average expression of LYNX1 (DOWN IN GA AND REF ONLY): 8.531 | average expression of MBD1 (DOWN IN GA AND REF ONLY): 9.009 | average expression of MBL1 (DOWN IN GA AND REF ONLY): 5.552 | average expression of MKL1 (DOWN IN GA AND REF ONLY): 6.303 | average expression of MREG (DOWN IN GA AND REF ONLY): 8.88 | average expression of MYO7A (DOWN IN GA AND REF ONLY): 6.668 | average expression of NEURL (DOWN IN GA AND REF ONLY): 5.956 | average expression of NISCH (DOWN IN GA AND REF ONLY): 7.088 | average expression of NOS3 (DOWN IN GA AND REF ONLY): 5.804 | average expression of NTE (DOWN IN GA AND REF ONLY): 8.3088 | average expression of OLFR150 (DOWN IN GA AND REF ONLY): 5.626 | average expression of OLFR516 (DOWN IN GA AND REF ONLY): 5.76 | average expression of OLFR586 (DOWN IN GA AND REF ONLY): 5.541 | average expression of OPHN1 (DOWN IN GA AND REF ONLY): 5.71 | average expression of ORF19 (DOWN IN GA AND REF ONLY): 6.879 | average expression of P2RX4 (DOWN IN GA AND REF ONLY): 7.358 | average expression of PAPSS2 (DOWN IN GA AND REF ONLY): 6.662 | average expression of PARD3B (DOWN IN GA AND REF ONLY): 5.905 | average expression of PCBP2 (DOWN IN GA AND REF ONLY): 12.63 | average expression of PCDH19 (DOWN IN GA AND REF ONLY): 5.63 | average expression of PEO1 (DOWN IN GA AND REF ONLY): 7.1356 | average expression of PI4KB (DOWN IN GA AND REF ONLY): 9.544 | average expression of PIK3R6 (DOWN IN GA AND REF ONLY): 6.343 | average expression of PLEKHB2 (DOWN IN GA AND REF ONLY): 9.006 | average expression of PREP (DOWN IN GA AND REF ONLY): 7.918 | average expression of PRKCZ (DOWN IN GA AND REF ONLY): 6.967 | average expression of PROM (DOWN IN GA AND REF ONLY): 5.87 | average expression of RARG (DOWN IN GA AND REF ONLY): 6.121 | average expression of RASGRF1 (DOWN IN GA AND REF ONLY): 5.764 | average expression of RBM15 (DOWN IN GA AND REF ONLY): 7.902 | average expression of RCCD1 (DOWN IN GA AND REF ONLY): 8.174 | average expression of REN1 (DOWN IN GA AND REF ONLY): 5.599 | average expression of RFFL (DOWN IN GA AND REF ONLY): 7.211 | average expression of RHBDD1 (DOWN IN GA AND REF ONLY): 7.627 | average expression of RING1 (DOWN IN GA AND REF ONLY): 8.656 | average expression of RNF10 (DOWN IN GA AND REF ONLY): 11.45 | average expression of RNF123 (DOWN IN GA AND REF ONLY): 7.4966 | average expression of S031414D18RIK (DOWN IN GA AND REF ONLY): 8.467 | average expression of SCL0004023.1_57 (DOWN IN GA AND REF ONLY): 5.99 | average expression of SEC16A (DOWN IN GA AND REF ONLY): 9.968 | average expression of SETD1A (DOWN IN GA AND REF ONLY): 8.956 | average expression of SFXN3 (DOWN IN GA AND REF ONLY): 6.025 | average expression of SGPL1 (DOWN IN GA AND REF ONLY): 7.481 | average expression of SHC1 (DOWN IN GA AND REF ONLY): 11.03 | average expression of SHKBP1 (DOWN IN GA AND REF ONLY): 8.287 | average expression of SLC9A4 (DOWN IN GA AND REF ONLY): 5.715 | average expression of SLC25A42 (DOWN IN GA AND REF ONLY): 6.212 | average expression of SLC35E4 (DOWN IN GA AND REF ONLY): 5.806 | average expression of SLCO6C1 (DOWN IN GA AND REF ONLY): 5.618 | average expression of SMARCE1 (DOWN IN GA AND REF ONLY): 9.332 | average expression of SNX15 (DOWN IN GA AND REF ONLY): 9.294 | average expression of SNX33 (DOWN IN GA AND REF ONLY): 6.987 | average expression of SOLH (DOWN IN GA AND REF ONLY): 7.952 | average expression of SP2 (DOWN IN GA AND REF ONLY): 6.867 | average expression of SRGAP2 (DOWN IN GA AND REF ONLY): 7.797 | average expression of SRGAP3 (DOWN IN GA AND REF ONLY): 6.074 | average expression of STARD3 (DOWN IN GA AND REF ONLY): 8.435 | average expression of TBC1D2 (DOWN IN GA AND REF ONLY): 6.839 | average expression of TBC1D25 (DOWN IN GA AND REF ONLY): 7.965 | average expression of TEAD4 (DOWN IN GA AND REF ONLY): 5.994 | average expression of TGFBI (DOWN IN GA AND REF ONLY): 6.19 | average expression of TGIF1 (DOWN IN GA AND REF ONLY): 8.224 | average expression of TIMM8A2 (DOWN IN GA AND REF ONLY): 5.837 | average expression of TLR13 (DOWN IN GA AND REF ONLY): 6.019 | average expression of TMEM56 (DOWN IN GA AND REF ONLY): 5.549 | average expression of TMEM63A (DOWN IN GA AND REF ONLY): 7.667 | average expression of TMUB1 (DOWN IN GA AND REF ONLY): 8.55 | average expression of TNS4 (DOWN IN GA AND REF ONLY): 5.759 | average expression of TRP53 (DOWN IN GA AND REF ONLY): 9.698 | average expression of TYROBP (DOWN IN GA AND REF ONLY): 7.408 | average expression of USP11 (DOWN IN GA AND REF ONLY): 6.423 | average expression of USP22 (DOWN IN GA AND REF ONLY): 9.057 | average expression of USP54 (DOWN IN GA AND REF ONLY): 6.972 | average expression of WWP2 (DOWN IN GA AND REF ONLY): 8.833 | average expression of ZC3H12A (DOWN IN GA AND REF ONLY): 8.215 | average expression of ZFP36L1 (DOWN IN GA AND REF ONLY): 13.82 | average expression of ZFP317 (DOWN IN GA AND REF ONLY): 7.218 | average expression of ZFP704 (DOWN IN GA AND REF ONLY): 5.829 | average expression of ZFPL1 (DOWN IN GA AND REF ONLY): 7.39 | genericLS expression level (DOWN IN GA AND REF ONLY): 6.212 | average expression of CLEC4B1 [1]: 5.984 | average expression of LOC100048105 [1]: 13.17 | average expression of SLC11A1 [1]: 6.429 | average expression of CLEC4B1 [2]: 5.725 | average expression of LOC100048105 [2]: 13.47 | average expression of SLC11A1 [2]: 6.896 | average expression of GAS7 (DOWN IN GA AND REF ONLY, second line for this gene (first at r2479)): 6.6505 | 29D0003A17RIK expression level (DOWN IN generic ONLY): 6.032 | 1700081L16RIK expression level (DOWN IN generic ONLY): 5.561 | 2210003I03RIK expression level (DOWN IN generic ONLY): 5.693 | 3110052M02RIK expression level (DOWN IN generic ONLY): 5.651 | 3110079O15RIK expression level (DOWN IN generic ONLY): 5.642 | 4833419KD8RIK expression level (DOWN IN generic ONLY): 5.588 | 4921522P10RIK expression level (DOWN IN generic ONLY): 5.793 | 4930543E05RIK expression level (DOWN IN generic ONLY): 5.681 | 4930571C24RIK expression level (DOWN IN generic ONLY): 5.414 | 5730599A22RIK expression level (DOWN IN generic ONLY): 5.675 | 6430527G18RIK expression level (DOWN IN generic ONLY): 5.618 | 6720487G11RIK expression level (DOWN IN generic ONLY): 5.949 | A230066D03RIK expression level (DOWN IN generic ONLY): 5.913 | A530088H08RIK expression level (DOWN IN generic ONLY): 5.838 | A830021M18 expression level (DOWN IN generic ONLY): 5.662 | ADAMTSL3 expression level (DOWN IN generic ONLY): 5.806 | B230323D24RIK expression level (DOWN IN generic ONLY): 5.81 | BRPF1 expression level (DOWN IN generic ONLY): 8.958 | BTF3L4 expression level (DOWN IN generic ONLY): 5.682 | C430020E23RIK expression level (DOWN IN generic ONLY): 5.906 | CNTN2 expression level (DOWN IN generic ONLY): 5.729 | CORO1B expression level (DOWN IN generic ONLY): 11.36 | CRAT expression level (DOWN IN generic ONLY): 5.921 | CREBZF expression level (DOWN IN generic ONLY): 5.66 | D130050A01RIK expression level (DOWN IN generic ONLY): 5.633 | D130061E05RIK expression level (DOWN IN generic ONLY): 5.723 | D130063P19RIK expression level (DOWN IN generic ONLY): 5.768 | D530031C13RIK expression level (DOWN IN generic ONLY): 5.728 | DLG1 expression level (DOWN IN generic ONLY): 5.734 | EFCAB1 expression level (DOWN IN generic ONLY): 5.72 | EG634762 expression level (DOWN IN generic ONLY): 5.772 | ELMO2 expression level (DOWN IN generic ONLY): 5.907 | ENSMUSG00000071316 expression level (DOWN IN generic ONLY): 5.766 | EZH2 expression level (DOWN IN generic ONLY): 5.625
